Experimental data published in ChEMBL document CHEMBL6109105, “Design, synthesis and antibacterial evaluation of oxazolidinone derivatives containing N-methylglycyl or quaternary ammonium salts” (Bioorg Med Chem, 2025).
Converted amounts (≈) assume the structure as drawn. The source made the active and inactive calls. The rule behind the calls is not given here.

Legend:
[1] = Hemolytic activity in sheep RBC assessed as hemolysis incubated for 1 hrs by microplate reader analysis; format: toxicity, cell-based, Ovis aries, Erythrocyte; settings: sheep red blood cells
Staphylococcus aureus [2] = test: Antibacterial activity against Staphylococcus aureus ATCC 29213 assessed as inhibition of bacterial growth incubated for 16 to 18 hrs by microbroth dilution method; format: functional; settings: time 16-18 hrs, read-out: MIC100
Enterococcus faecalis [3] = test: Antibacterial activity against Enterococcus faecalis ATCC 29212 assessed as inhibition of bacterial growth incubated for 16 to 18 hrs by microbroth dilution method; format: functional; settings: time 16-18 hrs, read-out: MIC100
Escherichia coli = test: Antibacterial activity against Escherichia coli ATCC 25922 assessed as inhibition of bacterial growth incubated for 16 to 18 hrs by microbroth dilution method; format: functional; settings: time 16-18 hrs, read-out: MIC100
[4] = system: Stenotrophomonas maltophilia; test: Antibacterial activity against Stenotrophomonas maltophilia ATCC 17808 assessed as inhibition of bacterial growth incubated for 16 to 18 hrs by microbroth dilution method; format: functional; settings: time 16-18 hrs, read-out: MIC100
Staphylococcus aureus [5] = test: Antibacterial activity against methicillin-sensitive Staphylococcus aureus; format: functional
Enterococcus = test: Antibacterial activity against vancomycin-resistant enterococcus; format: functional
Streptococcus pneumoniae = test: Antibacterial activity against penicillin-resistant Streptococcus pneumoniae; format: functional
Staphylococcus aureus [6] = test: Antibacterial activity against methicillin-resistant Staphylococcus aureus; format: functional
HeLa = test: Cytotoxicity against human HeLa cells assessed as increase in red fluorescence at 32 microg/ml incubated for 24 hrs by calcein-AM/PI staining based fluorescence microscopic analysis; format: toxicity, cell-based; settings: dose 32 µg/ml
[7] = (§1) Selectivity ratio of MIC for antibacterial activity against Enterococcus faecalis assessed as inhibition of bacterial growth measured immediately in presence of 50% plasma to MIC for antibacterial activity against Enterococcus faecalis assessed as inhibition of bacterial growth assessed as inhibition of bacterial growth measured after 16 to 18 hrs; format: functional
Enterococcus faecalis [8] = test: Antibacterial activity against Enterococcus faecalis assessed as inhibition of bacterial growth incubated for 3 hrs in presence of 50% plasma by dilution method; format: functional
Cell membrane = test: Induction of cytoplasmic membrane permeability in Enterococcus faecalis assessed as increase in fluorescence intensity at 8 times of MIC by PI staining based analysis
[9] = Cytotoxicity against human HeLa cells assessed as cell viability at 64 microg/ml incubated for 24 hrs by CCK8 assay relative to control; format: toxicity, cell-based; settings: at 64 µg/mL, read-out: Activity
[10] = as §1, with “after 3 hrs” for “immediately”; format: functional

| SMILES | HC50 at 1 h [1] | MIC (Staphylococcus aureus [2]) | MIC (Enterococcus faecalis [3]) | MIC (Escherichia coli) | MIC [4] | also measured |
| --- | --- | --- | --- | --- | --- | --- |
| CC(=O)NC[C@H]1CN(c2ccc(N3CCN(C(=O)C[N+](C)(C)Cc4ccc(C#N)cc4)CC3)c(F)c2)C(=O)O1.[Br-] | > 1280 µg/mL | > 128 µg/mL | 32 µg/mL | > 128 µg/mL | > 128 µg/mL | – |
| CC(=O)NC[C@H]1CN(c2ccc(N3CCN(C(=O)CN(C)Cc4ccc(Cl)cc4)CC3)c(F)c2)C(=O)O1 | > 1280 µg/mL | 16 µg/mL (≈ 30.1 µM) | 2 µg/mL (≈ 3.76 µM) | > 128 µg/mL | > 128 µg/mL | – |
| CC(=O)NC[C@H]1CN(c2ccc(N3CCN(C(=O)CN(C)Cc4ccccc4)CC3)c(F)c2)C(=O)O1 | > 1280 µg/mL | 16 µg/mL (≈ 32.2 µM) | 4 µg/mL (≈ 8.04 µM) | > 128 µg/mL | > 128 µg/mL | – |
| CC(=O)NC[C@H]1CN(c2ccc(N3CCN(C(=O)CN(C)Cc4ccc(C)cc4)CC3)c(F)c2)C(=O)O1 | > 1280 µg/mL | 16 µg/mL (≈ 31.3 µM) | 2 µg/mL (≈ 3.91 µM) | > 128 µg/mL | > 128 µg/mL | – |
| COc1ccc(CN(C)CC(=O)N2CCN(c3ccc(N4C[C@H](CNC(C)=O)OC4=O)cc3F)CC2)cc1 | > 1280 µg/mL | 16 µg/mL (≈ 30.3 µM) | 2 µg/mL (≈ 3.79 µM) | > 128 µg/mL | > 128 µg/mL | – |
| COc1ccccc1CN(C)CC(=O)N1CCN(c2ccc(N3C[C@H](CNC(C)=O)OC3=O)cc2F)CC1 | > 1280 µg/mL | 16 µg/mL (≈ 30.3 µM) | 2 µg/mL (≈ 3.79 µM) | > 128 µg/mL | > 128 µg/mL | – |
| CCCCC[N+](C)(C)CC(=O)N1CCN(c2ccc(N3C[C@H](CNC(C)=O)OC3=O)cc2F)CC1.[Br-] | > 1280 µg/mL | > 128 µg/mL | 16 µg/mL | > 128 µg/mL | > 128 µg/mL | – |
| COc1cccc(CN(C)CC(=O)N2CCN(c3ccc(N4C[C@H](CNC(C)=O)OC4=O)cc3F)CC2)c1 | > 1280 µg/mL | 16 µg/mL (≈ 30.3 µM) | 2 µg/mL (≈ 3.79 µM) | > 128 µg/mL | > 128 µg/mL | – |
| CC(=O)NC[C@H]1CN(c2ccc(N3CCN(Cc4ccc([N+](=O)[O-])o4)CC3)c(F)c2)C(=O)O1 [RANBEZOLID] | – | – | – | – | – | MIC (Staphylococcus aureus [5]): 0.06 µg/mL (≈ 0.13 µM); MIC (Enterococcus): 0.06 µg/mL (≈ 0.13 µM); MIC (Streptococcus pneumoniae): 0.06 µg/mL (≈ 0.13 µM); MIC (Staphylococcus aureus [6]): 0.06 µg/mL (≈ 0.13 µM) |
| Br.CC(=O)NC[C@H]1CN(c2ccc(N3CCN(C(=O)C[N+](C)(C)Cc4ccc([N+](=O)[O-])cc4)CC3)c(F)c2)C(=O)O1 | > 1280 µg/mL | 128 µg/mL | 128 µg/mL | > 128 µg/mL | > 128 µg/mL | – |
| CC(=O)NC[C@H]1CN(c2ccc(N3CCN(C(=O)CN(C)Cc4cccc([N+](=O)[O-])c4)CC3)c(F)c2)C(=O)O1 | > 1280 µg/mL | 8 µg/mL (≈ 14.7 µM) | 2 µg/mL (≈ 3.69 µM) | > 128 µg/mL | > 128 µg/mL | – |
| CCCCCC[N+](C)(C)CC(=O)N1CCN(c2ccc(N3C[C@H](CNC(C)=O)OC3=O)cc2F)CC1.[Br-] | > 1280 µg/mL | 128 µg/mL | 8 µg/mL | > 128 µg/mL | > 128 µg/mL | – |
| CC[C@H](C)[C@H](NC(=O)CN)C(=O)NCC(=O)N[C@@H](C)C(=O)N[C@H](C(=O)N[C@@H](CC(C)C)C(=O)N[C@@H](CCCCN)C(=O)N[C@H](C(=O)N[C@@H](CC(C)C)C(=O)N[C@H](C(=O)N[C@H](C(=O)NCC(=O)N[C@@H](CC(C)C)C(=O)N1CCC[C@H]1C(=O)N[C@@H](C)C(=O)N[C@@H](CC(C)C)C(=O)N[C@H](C(=O)N[C@@H](CO)C(=O)N[C@@H](Cc1c[nH]c2ccccc12)C(=O)N[C@H](C(=O)N[C@@H](CCCCN)C(=O)N[C@@H](CCCNC(=N)N)C(=O)N[C@@H](CCCCN)C(=O)N[C@@H](CCCNC(=N)N)C(=O)N[C@@H](CCC(N)=O)C(=O)N[C@@H](CCC(N)=O)C(N)=O)[C@@H](C)CC)[C@@H](C)CC)[C@@H](C)O)[C@@H](C)O)C(C)C)C(C)C [MELITTIN] | – | – | – | – | – | Activity (HeLa): Toxic; Selectivity ratio [7]: >16; MIC (Enterococcus faecalis [8]): 32 µg/mL; Activity (Cell membrane): Active; viability at 24 h, 64 microg/ml [9]: 5.2%; Selectivity ratio [10]: >16 |
